One data set deals with human BACE1 (Homo sapiens, UniProt P56817). Put plainly: Fluorescent kinetic assay (BACE-1, FRET peptide substrate WABC-6). Type of data set: biochemical. The following applies: 10 nM enzyme, 25 μM substrate WABC-6, 50 mM Na-Acetate pH 4.5, room temperature. As to the method: Evaluation of BACE-1 Binding Affinity of Test Compounds
1. Fluorescent Kinetic Assays • Final Assay Conditions: 10 nM human BACE1 (or 10 nM Murine BACE1, 1.5 nM human BACE2), 25 μM substrate (WABC-6, MW 1549.6, from AnaSpec), Buffer: 50 mM Na-Acetate, pH 4.5, 0.05% CHAPS, 25% PBS, room temperature. Na-Acetate was from Aldrich, Cat.# 24,124-5, CHAPS was from Research Organics, Cat. # 1304C 1×, PBS was from Mediatech (Cellgro), Cat# 21-031-CV, peptide substrate AbzSEVNLDAEFRDpa was from AnaSpec, Peptide Name: WABC-6 • Determination of stock substrate (AbzSEVNLDAEFRDpa) concentration: ˜25 mM stock solution is made in DMSO using the peptide weight and MW, and diluted to ˜25 μM (1:1000) in 1×PBS. Concentration is determined by absorbance at 354 nm using an extinction coefficient ε of 18172 M^−1 cm^−1, the concentration of stock substrate is corrected, and the substrate stock stored in small aliquots in −80° C. [Substrate Stock]=ABS^354 nm*10^6/18172 ([…]) The extinction coefficient ε^354 nm was adapted from TACE peptide substrate, which had the same quencher-fluorophore pair. • Determination of Stock Enzyme Concentration: the stock concentration of each enzyme is determined by absorbance at 280 nm using ε of 64150 M^−1 cm^−1 for hBACE1 and MuBACE1, 62870 M^−1 cm^−1 for hBACE2 in 6 M Guanidinium Hydrochloride (from Research Organics, Cat. # 5134G-2), pH ˜6. The extinction Coefficient ε^280 nm for each enzyme was calculated based on known amino acid composition and published extinction coefficients for Trp ([…]) and Tyr ([…]) residues (Anal. Biochem. 182, 319-326). • Dilution and mixing steps: total reaction volume: 100 μL
2× inhibitor dilutions in buffer A (66.7 mM Na-Acetate, pH 4.5, 0.0667% CHAPS) were prepared,
4× enzyme dilution in buffer A (66.7 mM Na-Acetate, pH 4.5, 0.0667% CHAPS) were prepared,
100 μM substrate dilution in 1×PBS was prepared, and […]

Chain of human BACE1 (P56817 46-501): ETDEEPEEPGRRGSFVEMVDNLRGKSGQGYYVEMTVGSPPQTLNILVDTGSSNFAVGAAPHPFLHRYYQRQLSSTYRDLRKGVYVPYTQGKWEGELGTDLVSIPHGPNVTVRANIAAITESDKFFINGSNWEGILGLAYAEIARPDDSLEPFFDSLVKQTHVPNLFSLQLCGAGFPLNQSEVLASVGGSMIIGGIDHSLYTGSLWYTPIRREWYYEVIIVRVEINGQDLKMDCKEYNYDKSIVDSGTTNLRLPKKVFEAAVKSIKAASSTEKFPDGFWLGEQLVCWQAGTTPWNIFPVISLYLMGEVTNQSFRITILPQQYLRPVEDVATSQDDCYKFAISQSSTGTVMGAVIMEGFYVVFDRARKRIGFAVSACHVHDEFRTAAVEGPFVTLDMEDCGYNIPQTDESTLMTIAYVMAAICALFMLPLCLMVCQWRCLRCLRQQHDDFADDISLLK

In the case of `N=C(N)NC(=O)Cc1c(-c2ccccc2)cccc1-c1ccc2ccccc2c1` [Example 2, N-{[3-(2-Naphthyl)-1,1′-biphenyl-2-yl]acetyl}guanidine], the melting point (usually the temperature, or range, at which the solid turns liquid) was in the range of 36.8 to 36.9 °C. The IC50 (commonly the point on the concentration scale where inhibition reaches its midpoint) against human BACE1 is 29.6 µM.
For the molecule `NC(N)=NC(=O)Cc1c(-c2ccccc2)cccc1-c1ccc(Oc2ccccc2)cc1` [Example 4, N″-[(4-Phenoxy-1,1′:3′,1″-terphenyl-2′-yl)acetyl]guanidine], on human BACE1, 5.95 µM corresponded to half-maximal inhibition (IC50).
Take `CC(C)(C)c1ccc(-c2cccc(-c3ccccc3)c2CC(=O)NC(=N)N)cc1` [Example 3, N-[(4-tert-Butyl-1,1′:3′,1″-terphenyl-2′-yl)acetyl]guanidine]: the melting point fell in the range of 171 to 174 °C. Also, on human BACE1, the IC50 worked out at 13.9 µM.
Take `N=C(N)NC(=O)Cc1c(-c2ccccc2)cccc1-c1ccccc1.O=C(O)C(F)(F)F` [Example 1, N-(1,1′:3′,1″-Terphenyl-2′-ylacetyl)guanidine TFA salt]: the melting point fell in the range of 64 to 67 °C. This molecule also gave an IC50 against human BACE1 of 15 µM.

The values are drawn from patent publication US7285682B2, “Terphenyl guanidines as β-secretase inhibitors” (Wyeth, priority 2005, dated 2007).
